US20080027087A1 (AMPLA Pharmaceuticals, Inc., priority 2006, published 2008)

How the values were obtained:
[1] = acute administration: wet mash intake, food intake and body weight in lean male C57BL/6J mice; type: in vivo; conditions: 10 mg/kg orally, one-way ANOVA
[2] = body weight of diet-induced obese male C57BL/6J mice, repeated oral administration for 28 days; type: in vivo; conditions: for reduction of body weight: 28 days dosing, diet-induced obese mice
Experimental: Sibutramine, which is currently used clinically, and rimonabant, which has recently received regulatory approval for the management of obesity were used as reference compounds.
Sixty-five C57BL/6J mice (7-8 weeks of age) were ordered from Charles River, Margate, Kent. Mice were group housed in polypropylene cages with free access to a high fat diet (D12451 45% of Kcal derived from fat; Research Diets, N.J., USA) and tap water at all times. Animals were maintained at 21±4° C. and 55±20% humidity on a normal phase 12 h light-dark cycle (lights on 04:30 h)
Animals were exposed to the high fat diet for 16 weeks. During this time body weight was recorded weekly. At the end of 14 weeks animals were singly housed in polypropylene cages for a further two week period (weeks 14-16) and placed on reverse phase lighting (lights off for 8 h from 9.30-17.30 h) during which time the room was illuminated by red light. Animals were dosed with vehicle orally throughout the baseline period. Body weight and food and water intake was recorded daily. Towards the end of the baseline period animals were allocated to one of seven groups (see table 2 below). Upon completion of the baseline period, mice were dosed for 28 days with vehicle or test drug as described below.
Body weight and food and water intake were recorded daily. Following drug administration the animals were examined and any overt behaviour was recorded. For all dosing, the morning session was timed such that approximately half the mice were dosed at the time of lights out (09:30).
The test compounds were dissolved in 1% methylcellulose. […] Drug doses were expressed as free base.
Resulting body weights, food intake and water intake were expressed as mean values ±SEM, and the SEMs are calculated from residuals of the statistical model. Body weight data was analysed by ANCOVA with Day 1 as covariate followed by appropriate comparisons (two-tailed) to determine significant differences from the control group. […] Daily food and water intake data was analysed by ANOVA.

CB1 receptor [3] = molecular target: T1, CB1 receptor (Homo sapiens, UniProt P21554); assay: functional activity versus the CB1 receptor
T1 sequence (P21554 whole entry): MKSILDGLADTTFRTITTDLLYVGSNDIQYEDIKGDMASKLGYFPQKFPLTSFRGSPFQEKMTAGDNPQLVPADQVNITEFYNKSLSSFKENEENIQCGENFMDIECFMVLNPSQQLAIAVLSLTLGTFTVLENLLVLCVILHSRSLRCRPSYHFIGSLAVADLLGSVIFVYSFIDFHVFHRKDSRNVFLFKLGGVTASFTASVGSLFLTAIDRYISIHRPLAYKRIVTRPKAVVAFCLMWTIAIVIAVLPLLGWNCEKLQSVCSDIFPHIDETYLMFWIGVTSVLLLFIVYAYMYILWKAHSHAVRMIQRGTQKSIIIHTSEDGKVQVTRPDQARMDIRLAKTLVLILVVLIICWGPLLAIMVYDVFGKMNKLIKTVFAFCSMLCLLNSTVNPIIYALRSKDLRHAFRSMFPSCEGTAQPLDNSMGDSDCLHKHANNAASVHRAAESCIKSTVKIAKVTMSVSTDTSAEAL

CB1 receptor [4] = molecular target: T1, CB1 receptor; assay: competition ligand binding assay, CHO-k1 cell membranes; design: expressed in transfected cells; host or cells: CHO-k1 cell membranes; conditions: 0.75 nM radioligand, FIG. 6
Experimental: (§1) Competition ligand binding assays were performed with the non-selective cannabinoid receptor agonist ([^3H]CP 55,940) (0.75 nM) in the binding buffer containing 50 mM Tris-HCl, pH 7.4, 3 mM MgCl2, 1 mM EDTA, 0.2% BSA using CHO-k1 cell membranes stably expressing human CB1 receptors or mouse brain membrane preparations in 96-well plate format. The receptor membranes (10 μg/well) were pre-incubated with different concentrations of tested compounds in the binding buffer at room temperature for 30 min prior to addition of 0.75 nM [^3H]CP 55,940 in a final volume of 100 μl. The binding was carried out at room temperature for another 2 h. To determine the non-specific binding, experiments were also performed in the presence of 10 μM unlabeled CP 55,940. Binding was terminated by addition of cold binding buffer and filtrated on Whatman GF/B glass-fiber filters using a sampling manifold. The filters were washed 6 times with cold binding buffer and air-dried overnight. The radioactivity was quantitated on a TopCounter (PerkinElmer) after adding scintillation fluid. Specific binding was defined as the difference between the binding in the presence and absence of 10 μM unlabeled CP 55, 940.

[5] = molecular target: T2, mouse CB1 (mouse brain membrane) (Mus musculus, UniProt P47746); assay: competition ligand binding assay, mouse brain membrane preparations
T2 construct: human CB1 receptors or mouse brain membrane preparations in 96-well plate format; from tissue; host or cells: mouse brain membrane preparations
T2 sequence (P47746 whole entry): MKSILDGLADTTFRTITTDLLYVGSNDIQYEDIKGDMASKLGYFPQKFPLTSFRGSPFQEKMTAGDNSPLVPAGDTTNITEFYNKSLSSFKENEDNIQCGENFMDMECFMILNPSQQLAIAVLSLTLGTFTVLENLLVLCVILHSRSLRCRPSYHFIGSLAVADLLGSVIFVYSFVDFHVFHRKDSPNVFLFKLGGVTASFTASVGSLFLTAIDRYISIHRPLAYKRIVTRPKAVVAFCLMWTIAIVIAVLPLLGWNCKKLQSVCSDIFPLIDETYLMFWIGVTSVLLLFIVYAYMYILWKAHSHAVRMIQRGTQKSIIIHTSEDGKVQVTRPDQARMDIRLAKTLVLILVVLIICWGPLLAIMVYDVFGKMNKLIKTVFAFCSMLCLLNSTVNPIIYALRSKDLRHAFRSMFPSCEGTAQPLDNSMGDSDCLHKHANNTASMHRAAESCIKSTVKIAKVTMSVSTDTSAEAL
Experimental: as §1

CB1 receptor [6] = molecular target: T1, CB1 receptor; assay: [35S]GTPγS binding assay on CHO-k1 cell membranes; type: biochemical; design: expressed in transfected cells; host or cells: CHO-k1 cell membranes
Experimental: [^35S]GTPγS binding assays were performed with CHO-k1 cell membranes stably expressing human CB1 receptors in 96-well ScintiPlate (PerkinElmer). The membranes (12.5 μg/well) were preincubated with compound 7 in the binding buffer (50 mM Tris-HCl, pH 7.4, 100 mM NaCl, 3 mM MgCl2, 0.2 mM EDTA, 0.2% BSA and 10 μM GDP) at 30° C. for 30 min, then added various concentrations of agonists (WIN 55212-2 or CP 55,940) and [^35S]GTPγS (0.2 nM) in a final volume of 200 μl. Reactions were carried out at 30° C. for 60 min, followed by centrifugation of plate at […] for 15 min. After removing supernatant, the radioactivity was quantitated on a TopCounter.

CB2 receptor = molecular target: T3, CB2 receptor (Homo sapiens, UniProt P34972); assay: Ca2+i response to 2-AG in CB2 receptor bearing cells, dose-response with or without compound; type: cell-based; conditions: 2-AG with or without compound, FIG. 2
T3 construct: host or cells: CB2 receptor bearing cells (host not described)
T3 sequence (P34972 whole entry): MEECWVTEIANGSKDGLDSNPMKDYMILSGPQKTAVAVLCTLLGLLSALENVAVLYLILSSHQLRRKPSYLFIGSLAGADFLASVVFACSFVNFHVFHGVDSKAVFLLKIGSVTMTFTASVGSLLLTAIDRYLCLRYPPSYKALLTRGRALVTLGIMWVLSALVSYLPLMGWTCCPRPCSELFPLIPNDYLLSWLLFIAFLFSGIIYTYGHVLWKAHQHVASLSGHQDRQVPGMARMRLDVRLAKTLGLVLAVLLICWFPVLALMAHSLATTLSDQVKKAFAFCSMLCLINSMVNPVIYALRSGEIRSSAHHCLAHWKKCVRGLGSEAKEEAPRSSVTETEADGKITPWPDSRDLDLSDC

[7] = molecular target: T4, Human Cannabinoid 1 (CB1) receptor (Homo sapiens, UniProt P21554); assay: Ca2+i response to 2-AG in CB1 cells (Indo-1, DSIS flow cytometry), dose-response with or without compound; type: cell-based; conditions: 2-AG with or without compound, FIG. 2
T4 construct: expressed in transfected cells; host or cells: CHO cells stably expressing GqΔGi chimera
T4 sequence (P21554 whole entry): as the sequence (P21554 whole entry) above
Source text: cDNA for the G protein GqΔGi chimera was generated by PCR and inserted into the polylinker region of the pcDNA3/hygro+ vector (Invitrogen). Stable expression of GqΔGi chimera protein in CHO cell line was generated under hygromycin selection. Human Cannabinoid 1 (CB1) cDNA was inserted into the polylinker region of the pcDNA3.1/(+) vector (Invitrogen) and DNA was introduced into the GqΔGi/CHO cell line by Lipofectamine reagent (Invitrogen). […]
Cell line optimization was done by a proprietary method using our novel automated Direct Sample Injection System (DSIS, ‘Direct mixing and injection for high throughput fluidic systems’ Patent Application Number 20050249635) in conjunction with response. Intracellular Ca^2+ (Ca^2+i) levels were measured with Ca^2+ chelating fluorescent probes. […]
The probe-loaded CB1 and Control cell mixture was placed in the Cell Suspension System on the DSIS where they were continuously rocked to keep them in a suspended state. […] The DSIS software, NVS Sampler, recorded a timing file and the CyAn software, Summit, recorded a data file. These two files were then compiled and analyzed by our proprietary software, NVS Analyzer, to determine the percent of cells that responded to each concentration. The data was transferred to GraphPAD Prism for a non-linear regression curve fit that determined the EC50. […]

CB1 receptor [8] = molecular target: T1, CB1 receptor; assay: dissociation kinetics assay with [3H]CP 55,940 on CHO-k1 cell membranes; type: binding; design: expressed in transfected cells; host or cells: CHO-k1 cell membranes; conditions: 0.75 nM [3H]CP 55,940, room temperature, FIG. 3
Experimental: Dissociation kinetics assays were performed with the non-selective cannabinoid receptor agonist ([^3H]CP 55,940) (0.75 nM) in the binding buffer containing 50 mM Tris-HCl, pH 7.4, 3 mM MgCl2, 1 mM EDTA, 0.2% BSA using CHO-k1 cell membranes stably expressing human CB1 receptors in 96-well plate format. The CBI receptor membranes (10 μg/well) were incubated with 0.75 nM [^3H]CP 55,940 in 100 μl binding buffer at room temperature for 2 h. Dissociation was initiated with addition of 100 μl unlabeled CP 55,940 (10 μM) in binding buffer in the absence or presence of different concentrations of compounds (compound 7). Dissociation was carried out at room temperature for indicated time. To determine the non-specific binding, experiments were also performed in the presence of 10 μM unlabeled CP 55,940. Binding was terminated by addition of cold binding buffer and filtrated on Whatman GF/B glass-fiber filters using a sampling manifold. The filters were washed 6 times with cold binding buffer and air-dried overnight. The radioactivity was quantitated on a TopCounter (PerkinElmer) after adding scintillation fluid. Specific binding was defined as the difference between the binding in the presence and absence of 10 μM unlabeled CP 55,940.

Cc1c(C(=O)NN2CCCCC2)nn(-c2ccc(Cl)cc2Cl)c1-c1ccc(Cl)cc1 [rimonabant]
24 hour body weight change, difference versus vehicle ([1]; FIG. 10): No significant differences | daily food intake, difference versus vehicle ([1]; FIG. 15): No significant differences | body weight, difference versus vehicle ([1]; FIG. 16): No significant differences | reduction of body weight ([2]; 10 mg/kg po): 15% | weight reduction as compared to vehicle, significance ([2]; day 29, po, Dunnett's test p<0.001, FIG. 8): statistically significant weight reduction

CNCC[C@H](Oc1ccc(C(F)(F)F)cc1)c1ccccc1 [(S)-Fluoxetine]
functional activity versus the CB1 receptor (CB1 receptor [3]): inverse agonist

CNCC[C@@H](Oc1ccc(C(F)(F)F)cc1)c1ccccc1 [(R)-fluoxetine]
functional activity versus the CB1 receptor (CB1 receptor [3]): antagonist

NCCC(Oc1ccc(C(F)(F)F)cc1)c1ccccc1 (racemic) [norfluoxetine, 3-(4-trifluoromethylphenoxy)-3-phenylpropylamine]
functional activity versus the CB1 receptor (CB1 receptor [3]): antagonist

Fc1ccc(C(OCCCc2c[nH]cn2)c2ccc(F)cc2)cc1 [compound 7]
inhibition of binding of [3H]CP 55,940 (CB1 receptor [4]): partially inhibited | inhibition of agonist (CP 55940) binding ([5]; mouse brain membrane, FIG. 7): inhibited | inhibition of antagonist/inverse agonist (SR 141716) binding ([5]; mouse brain membrane, FIG. 7): inhibited | inhibition of binding of [3H]CP 55,940 ([5]; mouse brain membranes, 0.75 nM radioligand, FIG. 6): almost fully inhibited | pA2 estimation using CP 55940 as an agonist (CB1 receptor [6]; CB1 cell line, FIG. 4): did not support an allosteric effect | antagonist versus inverse agonist activity in [35S]GTPγS binding (CB1 receptor [6]; response relative to basal levels, FIG. 5): inverse agonist activity | effect on the 2-AG dose response (Ca2+i) of CB2 receptor bearing cells (CB2 receptor): No effect | effect on the 2-AG dose response (Ca2+i) of CB1 cells [7]: right shift | effect on the dissociation rate of [3H]CP 55,940 (CB1 receptor [8]): no effect

CC(C)CC(N(C)C)C1(c2ccc(Cl)cc2)CCC1 (stereo not drawn) [sibutramine]
reduction of body weight ([2]; 20 mg/kg po): 2%
